{"source": "patent US8580794B2", "about": "(AbbVie Inc., priority 2009, dated 2013)"}
{"molecular_target": "GST-Bc1-2 (Homo sapiens, UniProt P10415)", "sequence (P10415 whole entry)": "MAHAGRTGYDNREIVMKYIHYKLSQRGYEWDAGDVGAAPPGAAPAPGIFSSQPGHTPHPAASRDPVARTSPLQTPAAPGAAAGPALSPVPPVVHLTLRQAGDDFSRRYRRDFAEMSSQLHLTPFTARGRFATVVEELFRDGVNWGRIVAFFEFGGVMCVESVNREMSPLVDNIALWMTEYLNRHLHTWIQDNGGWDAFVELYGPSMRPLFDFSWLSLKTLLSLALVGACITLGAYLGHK", "assay": "Time Resolved-Fluorescence Resonance Energy Transfer (TR-FRET) Bcl-2 binding assay with F-Bak peptide probe", "details": "GST-Bcl-2 1 nM, F-Bak probe 100 nM, Tb-anti-GST 1 nM; '<' = below limit of detection; read-out: TR-FRET Bcl-2 Binding Ki", "units": {"Ki": "pM"}}
{"smiles": "CC1(C)CCC(CN2CCN(c3ccc(C(=O)NS(=O)(=O)c4ccc(NCC5(N)CCOCC5)c([N+](=O)[O-])c4)c(Oc4cnc5[nH]ccc5c4)c3)CC2)=C(c2ccc(Cl)cc2)C1", "note": "[Example 108, N-[(4-{[(4-aminotetrahydro-2H-pyran-4-yl)methyl]amino}-3-nitrophenyl)sulfonyl]-4-(4-{[2-(4-chlorophenyl)-4,4-dimethylcyclohex-1-en-1-yl]methyl}piperazin-1-yl)-2-(1H-pyrrolo[2,3-b]pyridin-5-yloxy)benzamide]", "Ki": "< 10"}
{"smiles": "COC1(Cc2ccccc2-c2ccc(Cl)cc2)CCN(c2ccc(C(=O)NS(=O)(=O)c3cnc(OCC4(F)CCOCC4)c(Cl)c3)c(Oc3cnc4[nH]ccc4c3)c2)CC1", "note": "[Example 263, 4-{4-[(4′-chlorobiphenyl-2-yl)methyl]-4-methoxypiperidin-1-yl}-N-({5-chloro-6-[(4-fluorotetrahydro-2H-pyran-4-yl)methoxy]pyridin-3-yl}sulfonyl)-2-(1H-pyrrolo[2,3-b]pyridin-5-yloxy)benzamide]", "Ki": 156}
{"smiles": "CC1(C)CCC(CN2CCN(c3ccc(C(=O)NS(=O)(=O)c4ccc(OC[C@@H]5CC(F)(F)CN5C5COC5)c([N+](=O)[O-])c4)c(Oc4cnc5[nH]ccc5c4)c3)CC2)=C(c2ccc(Cl)cc2)C1", "note": "[Example 168, 4-(4-{[2-(4-chlorophenyl)-4,4-dimethylcyclohex-1-en-1-yl]methyl}piperazin-1-yl)-N-[(4-{[(2S)-4,4-difluoro-1-oxetan-3-ylpyrrolidin-2-yl]methoxy}-3-nitrophenyl)sulfonyl]-2-(1H-pyrrolo[2,3-b]pyridin-5-yloxy)benzamide]", "Ki": "< 10"}
{"smiles": "CC(=O)N1CC[C@@H](Nc2ccc(S(=O)(=O)NC(=O)c3ccc(N4CCN(CC5=C(c6ccc(Cl)cc6)CC(C)(C)CC5)CC4)cc3Oc3cnc4[nH]ccc4c3)cc2[N+](=O)[O-])C1", "note": "[Example 154, N-[(4-{[(3R)-1-acetylpyrrolidin-3-yl]amino}-3-nitrophenyl)sulfonyl]-4-(4-{[2-(4-chlorophenyl)-4,4-dimethylcyclohex-1-en-1-yl]methyl}piperazin-1-yl)-2-(1H-pyrrolo[2,3-b]pyridin-5-yloxy)benzamide]", "Ki": "< 10"}
{"smiles": "CC1(C)CCC(CN2CCN(c3ccc(C(=O)NS(=O)(=O)c4cnc(OCC5CCOCC5)c(F)c4)c(Oc4cnc5[nH]ccc5c4)c3)CC2)=C(c2ccc(Cl)cc2)C1", "note": "[Example 293, 4-(4-{[2-(4-chlorophenyl)-4,4-dimethylcyclohex-1-en-1-yl]methyl}piperazin-1-yl)-N-{[5-fluoro-6-(tetrahydro-2H-pyran-4-ylmethoxy)pyridin-3-yl]sulfonyl}-2-(1H-pyrrolo[2,3-b]pyridin-5-yloxy)benzamide]", "Ki": 93}
{"smiles": "CC1(C)CCC(CN2CCN(c3ccc(C(=O)NS(=O)(=O)c4ccc(OCC5(F)CCN(C(=O)OC(C)(C)C)CC5)c([N+](=O)[O-])c4)c(Oc4cnc5[nH]ccc5c4)c3)CC2)=C(c2ccc(Cl)cc2)C1", "note": "[Example 126, tert-butyl 4-{[4-({[4-(4-{[2-(4-chlorophenyl)-4,4-dimethylcyclohex-1-en-1-yl]methyl}piperazin-1-yl)-2-(1H-pyrrolo[2,3-b]pyridin-5-yloxy)benzoyl]amino}sulfonyl)-2-nitrophenoxy]methyl}-4-fluoropiperidine-1-carboxylate]", "Ki": "< 10"}
{"smiles": "CN(C)CC(=O)N1CCC(COc2ncc(S(=O)(=O)NC(=O)c3ccc(N4CCN(CC5=C(c6ccc(Cl)cc6)CC(C)(C)CC5)CC4)cc3Oc3cnc4[nH]ccc4c3)cc2Cl)CC1", "note": "[Example 260, N-[(5-chloro-6-{[1-(N,N-dimethylglycyl)piperidin-4-yl]methoxy}pyridin-3-yl)sulfonyl]-4-(4-{[2-(4-chlorophenyl)-4,4-dimethylcyclohex-1-en-1-yl]methyl}piperazin-1-yl)-2-(1H-pyrrolo[2,3-b]pyridin-5-yloxy)benzamide]", "Ki": 16}
{"smiles": "CC1(C)CCC(CN2CCN(c3ccc(C(=O)NS(=O)(=O)c4ccc(N[C@H]5CCN(C6CC6)C5)c([N+](=O)[O-])c4)c(Oc4cnc5[nH]ccc5c4)c3)CC2)=C(c2ccc(Cl)cc2)C1", "note": "[Example 142, 4-(4-{[2-(4-chlorophenyl)-4,4-dimethylcyclohex-1-en-1-yl]methyl}piperazin-1-yl)-N-[(4-{[(3S)-1-cyclopropylpyrrolidin-3-yl]amino}-3-nitrophenyl)sulfonyl]-2-(1H-pyrrolo[2,3-b]pyridin-5-yloxy)benzamide]", "Ki": 130}
{"smiles": "CC1(C)CCC(CN2CCN(c3ccc(C(=O)NS(=O)(=O)c4cnc(NCC5CCOCC5)c([N+](=O)[O-])c4)c(Oc4cnc5[nH]ccc5c4)c3)CC2)=C(c2ccc(Cl)cc2)C1", "note": "[Example 364, 4-(4-{[2-(4-chlorophenyl)-4,4-dimethylcyclohex-1-en-1-yl]methyl}piperazin-1-yl)-N-({5-nitro-6-[(tetrahydro-2H-pyran-4-ylmethyl)amino]pyridin-3-yl}sulfonyl)-2-(1H-pyrrolo[2,3-b]pyridin-5-yloxy)benzamide]", "Ki": "< 10"}
{"smiles": "CC1(C)CCC(CN2CCN(c3ccc(C(=O)NS(=O)(=O)c4ccc(NCC5COCCN5C5CCOCC5)c([N+](=O)[O-])c4)c(Oc4cnc5[nH]ccc5c4)c3)CC2)=C(c2ccc(Cl)cc2)C1", "note": "(stereo not shown) [Example 169, 4-(4-{[2-(4-chlorophenyl)-4,4-dimethylcyclohex-1-en-1-yl]methyl}piperazin-1-yl)-N-[(3-nitro-4-{[(4-tetrahydro-2H-pyran-4-ylmorpholin-3-yl)methyl]amino}phenyl)sulfonyl]-2-(1H-pyrrolo[2,3-b]pyridin-5-yloxy)benzamide]", "Ki": 21}
{"smiles": "CC1(C)CCC(CN2CCN(c3ccc(C(=O)NS(=O)(=O)c4ccc(OCC5CCOCC5)c([N+](=O)[O-])c4)c(Oc4cnc5[nH]ccc5c4)c3)CC2)=C(c2ccc(Cl)cc2)C1", "note": "[Example 24, 4-(4-{[2-(4-chlorophenyl)-4,4-dimethylcyclohex-1-en-1-yl]methyl}piperazin-1-yl)-N-{[3-nitro-4-(tetrahydro-2H-pyran-4-ylmethoxy)phenyl]sulfonyl}-2-(1H-pyrrolo[2,3-b]pyridin-5-yloxy)benzamide]", "Ki": "< 10"}
{"smiles": "CC1(C)CCC(CN2CCN(c3ccc(C(=O)NS(=O)(=O)c4ccc(NCC5(N6CCOCC6)CCCCC5)c([N+](=O)[O-])c4)c(Oc4cnc5[nH]ccc5c4)c3)CC2)=C(c2ccc(Cl)cc2)C1", "note": "[Example 99, 4-(4-{[2-(4-chlorophenyl)-4,4-dimethylcyclohex-1-en-1-yl]methyl}piperazin-1-yl)-N-[(4-{[(1-morpholin-4-ylcyclohexyl)methyl]amino}-3-nitrophenyl)sulfonyl]-2-(1H-pyrrolo[2,3-b]pyridin-5-yloxy)benzamide]", "Ki": 233}
{"smiles": "CC1(C)CCC(CN2CCN(c3ccc(C(=O)NS(=O)(=O)c4ccc(NC5CCN(S(C)(=O)=O)CC5)c([N+](=O)[O-])c4)c(Oc4cnc5[nH]ccc5c4)c3)CC2)=C(c2ccc(Cl)cc2)C1", "note": "[Example 80, 4-(4-{[2-(4-chlorophenyl)-4,4-dimethylcyclohex-1-en-1-yl]methyl}piperazin-1-yl)-N-[(4-{[1-(methylsulfonyl)piperidin-4-yl]amino}-3-nitrophenyl)sulfonyl]-2-(1H-pyrrolo[2,3-b]pyridin-5-yloxy)benzamide]", "Ki": "< 10"}
